In US7452680B2, “MCT1 transporters expressed in blood brain barrier cells” (XenoPort, Inc., priority 2004, dated 2008):

Assays:
[1] = target: T1, MCT1 (Homo sapiens, UniProt P53985); conditions: cited from earlier work
T1 sequence (P53985 1-500): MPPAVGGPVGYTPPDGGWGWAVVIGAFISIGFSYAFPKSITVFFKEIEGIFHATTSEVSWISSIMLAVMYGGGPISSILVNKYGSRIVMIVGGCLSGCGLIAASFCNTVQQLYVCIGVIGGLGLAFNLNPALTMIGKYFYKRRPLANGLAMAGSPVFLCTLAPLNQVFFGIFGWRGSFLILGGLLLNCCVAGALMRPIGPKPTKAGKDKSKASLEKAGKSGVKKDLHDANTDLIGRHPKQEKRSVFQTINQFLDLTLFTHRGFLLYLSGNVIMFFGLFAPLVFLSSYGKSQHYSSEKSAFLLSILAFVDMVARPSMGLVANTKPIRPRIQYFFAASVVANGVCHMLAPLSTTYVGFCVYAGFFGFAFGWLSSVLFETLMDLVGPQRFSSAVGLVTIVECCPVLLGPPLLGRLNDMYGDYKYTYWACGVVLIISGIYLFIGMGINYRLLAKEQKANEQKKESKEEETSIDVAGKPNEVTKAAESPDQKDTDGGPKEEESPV
T1 sequence (P35613 140-385 partner limits assumed): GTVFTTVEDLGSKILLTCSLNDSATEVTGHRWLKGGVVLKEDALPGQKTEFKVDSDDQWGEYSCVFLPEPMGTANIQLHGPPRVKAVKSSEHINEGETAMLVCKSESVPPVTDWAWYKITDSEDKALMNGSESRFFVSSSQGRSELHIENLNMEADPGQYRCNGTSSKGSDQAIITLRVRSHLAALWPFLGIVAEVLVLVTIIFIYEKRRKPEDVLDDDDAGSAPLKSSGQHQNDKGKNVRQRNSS

[2] = target: T1, MCT1; assay: Inducible uptake by LLCPK-TREx cell line containing pTREx-hMCT1 (FIG. 10); format: cell-based; parameters: expressed in transfected cells; host or cells: LLCPK-TREx cells; conditions: vs non-tet treated (un-induced) or parental LLCPK cells; pH 6.8, 2 minutes
Description: FIG. 10 depicts the results of an uptake experiment showing inducible uptake of (A) ^14C-lactate and (B) thiopheneglyoxylic acid by the LLCPK-TREx cell line containing plasmid pTREx-hMCT1. Uptake of ^14C-lactate was measured as follows: radiolabeled ^14C-lactic acid (˜50,000 cpm/well) was added to each well in triplicate. Experiments were performed in an MES-based saline buffer adjusted to pH 6.8. Plates were incubated at room temperature for 2 minutes. Excess radiolabeled substrate was removed and cells were washed three times with a 96-well plate washer with cold assay buffer. Scintillation fluid was added to each well, the plates were sealed and counted in a 96-well plate-based scintillation counter. Uptake of thiopheneglyoxylic acid was measured similarly to ^14C-lactate, except cells were washed and compound extracted with a 50% ethanol solution. Levels of extracted thiopheneglyoxylate were measured using mass spectroscopy as described above. Negative control values were determined by measuring the uptake into non-tet treated (un-induced) or parental LLCPK (constitutive) cells.

[3] = target: T2, hMCT1-rCD147 fusion protein (Homo sapiens, UniProt P53985, D490E); assay: Competitive binding and uptake assay, inhibition of 14C-lactate uptake (FIG. 13); format: cell-based; parameters: rCD147 (rat CD147/basigin) fusion partner; expressed in transfected cells; conditions: cells expressing the fusion protein vs cells endogenously expressing hMCT1
T2 sequence (P53985 with tags, fused parts or gaps D490E): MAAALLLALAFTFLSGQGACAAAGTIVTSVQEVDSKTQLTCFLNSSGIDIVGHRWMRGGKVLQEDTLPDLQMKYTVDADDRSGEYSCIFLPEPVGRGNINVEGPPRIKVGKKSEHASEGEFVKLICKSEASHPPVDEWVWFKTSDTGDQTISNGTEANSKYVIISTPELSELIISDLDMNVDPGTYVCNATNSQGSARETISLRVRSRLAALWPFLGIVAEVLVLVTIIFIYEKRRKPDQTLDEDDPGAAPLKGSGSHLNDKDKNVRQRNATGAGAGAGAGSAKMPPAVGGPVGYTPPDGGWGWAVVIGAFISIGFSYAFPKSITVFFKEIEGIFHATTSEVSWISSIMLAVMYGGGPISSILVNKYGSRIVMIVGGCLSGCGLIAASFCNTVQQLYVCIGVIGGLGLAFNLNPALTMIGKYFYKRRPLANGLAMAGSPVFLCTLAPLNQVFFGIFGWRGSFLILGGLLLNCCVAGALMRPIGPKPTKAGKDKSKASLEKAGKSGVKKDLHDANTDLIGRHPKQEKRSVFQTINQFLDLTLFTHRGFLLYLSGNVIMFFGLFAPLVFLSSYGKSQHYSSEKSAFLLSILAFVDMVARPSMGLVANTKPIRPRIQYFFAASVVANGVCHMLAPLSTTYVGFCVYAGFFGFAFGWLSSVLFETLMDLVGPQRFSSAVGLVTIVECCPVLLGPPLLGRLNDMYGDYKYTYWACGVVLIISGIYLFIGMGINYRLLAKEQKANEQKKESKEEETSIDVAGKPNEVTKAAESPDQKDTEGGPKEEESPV
Description: To determine whether a compound interacts with the MCT1 transporter, a competition-binding assay was developed. This assay measures how different concentrations of a test compound block the uptake of a radiolabeled substrate such as lactate. The half-maximal inhibitory concentration (IC50) for inhibition of transport of a substrate by a test compound is an indication of the affinity of the test compound for the MCT1 transporter. Competition binding studies were performed as follows. HEK-PEAK cells were plated in 96-well plates at 100,000 cells/well and incubated at 37° C. for 24 hours. Radiolabeled ^14C-lactic acid (˜50,000 cpm/well) was added to each well in the presence and absence of various concentrations of unlabeled lactic acid in duplicate or triplicate. Competition experiments were performed in an MES-based saline buffer adjusted to pH 6.8. Plates were incubated at room temperature for 2 minutes. Excess radiolabeled substrate was removed and cells were washed three times with a 96-well plate washer with cold assay buffer. Scintillation fluid was added to each well, the plates were sealed and counted in a 96-well plate-based scintillation counter. Data were graphed and analyzed using non-linear regression analysis with Prism Software (GraphPad, Inc., San Diego, Calif.). Competition binding in HEK-PEAK cells is illustrated in FIG. 4B.
To confirm the pharmacology of the hMCT1-rCD147 fusion proteins was the same as that of the unmodified version of hMCT1, the hMCT1-rCD147-expressing cells lines were tested in a competitive binding and uptake assay. Eight different MCT1 substrates were tested for their ability to inhibit the uptake of ^14C-lactate into isolated cell lines inducibly or constitutively expressing hMCT1-rCD147 fusion protein and into cells endogenously expressing hMCT1.

[4] = target: T1, MCT1; assay: Uptake of tritiated GHB, cells over expressing MCT1 protein (FIG. 14); format: cell-based; parameters: expressed in transfected cells; host or cells: LLCPK-TREx cells; conditions: compared with control cells
Description: (§1) To determine whether […] (GHB) is a substrate for MCT1, an uptake assay was performed using tritiated […].

[5] = target: T2, hMCT1-rCD147 fusion protein; assay: Uptake of tritiated GHB, cells expressing hMCT1-rCD147 fusion protein (FIG. 14); format: cell-based; parameters: rCD147 (rat CD147/basigin) fusion partner; expressed in transfected cells; host or cells: LLCPK-TREx cells (pTREx-hMCT1-rCD147 inducible, pMO-hMCT1-rCD147 constitutive); conditions: inducibly or constitutively expressing cells, compared with uninduced or control cells
Description: as §1

[6] = target: PgP (Homo sapiens, UniProt P08183); assay: Cellular transwell monolayer efflux assay, MDCK cells transfected with TREx-PgP (FIG. 8)
PgP, sequence (P08183 whole entry): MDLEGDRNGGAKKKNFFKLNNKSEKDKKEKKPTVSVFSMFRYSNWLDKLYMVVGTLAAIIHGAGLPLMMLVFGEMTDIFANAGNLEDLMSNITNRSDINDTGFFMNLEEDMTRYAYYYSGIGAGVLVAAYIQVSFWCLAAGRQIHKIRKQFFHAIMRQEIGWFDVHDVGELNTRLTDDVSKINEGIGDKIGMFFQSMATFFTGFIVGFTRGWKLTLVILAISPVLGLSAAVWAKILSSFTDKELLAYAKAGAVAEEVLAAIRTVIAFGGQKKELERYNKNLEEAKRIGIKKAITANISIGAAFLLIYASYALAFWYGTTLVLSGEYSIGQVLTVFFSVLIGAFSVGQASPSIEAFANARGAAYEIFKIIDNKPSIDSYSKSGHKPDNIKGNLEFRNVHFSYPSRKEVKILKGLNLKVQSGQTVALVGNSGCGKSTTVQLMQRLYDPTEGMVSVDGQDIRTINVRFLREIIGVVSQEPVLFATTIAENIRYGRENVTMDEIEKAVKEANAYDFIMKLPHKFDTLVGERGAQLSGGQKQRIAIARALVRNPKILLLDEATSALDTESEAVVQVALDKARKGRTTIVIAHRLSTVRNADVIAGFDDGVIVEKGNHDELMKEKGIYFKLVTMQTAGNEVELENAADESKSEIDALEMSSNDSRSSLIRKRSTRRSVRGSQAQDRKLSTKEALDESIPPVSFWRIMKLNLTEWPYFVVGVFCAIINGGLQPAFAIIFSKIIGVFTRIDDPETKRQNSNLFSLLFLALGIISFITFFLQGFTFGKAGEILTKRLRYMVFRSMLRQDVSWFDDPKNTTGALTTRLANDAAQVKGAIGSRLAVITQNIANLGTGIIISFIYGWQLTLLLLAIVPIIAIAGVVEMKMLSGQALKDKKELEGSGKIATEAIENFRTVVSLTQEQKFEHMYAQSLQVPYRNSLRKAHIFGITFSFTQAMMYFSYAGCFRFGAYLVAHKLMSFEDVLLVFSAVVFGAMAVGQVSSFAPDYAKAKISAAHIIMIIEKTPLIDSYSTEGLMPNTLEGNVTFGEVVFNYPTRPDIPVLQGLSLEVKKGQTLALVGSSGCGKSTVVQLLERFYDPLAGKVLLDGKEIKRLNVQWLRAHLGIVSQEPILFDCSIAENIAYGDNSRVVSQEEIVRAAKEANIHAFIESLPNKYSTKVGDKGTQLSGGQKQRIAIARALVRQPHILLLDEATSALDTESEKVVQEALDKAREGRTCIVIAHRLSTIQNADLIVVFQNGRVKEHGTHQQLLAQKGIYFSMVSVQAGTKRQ
Description: A third type of efflux transporter assay is the cellular transwell monolayer efflux assay. […] The cells form a polarized monolayer. The transwell dishes have apical and basolateral chambers that are separated by the filter membrane on which the polarized monolayer is situated. Assays are performed by placing a test compound in either the apical or basolateral chamber, followed by sampling the opposite chamber after a predetermined period of time such as 60-120 minutes and measuring the amount of the test compound. The test compound can be measured by methods such as radiolabel detection or LC-MS-MS analysis. Assays are performed in the presence and absence of an efflux transporter inhibitor or competitor. Efflux transporter inhibitors or competitors increase apical to basolateral transport and decrease basolateral to apical transport of compounds that are efflux transporter substrates. Apparent permeability (Papp) of test compounds is measured. […] Test compounds that generate ratios between 1.5 and 2.0 require additional testing to determine if they are efflux transporter substrates.
MDCK cells transfected with the tetracycline-inducible TREx-PgP expression vector were seeded on polycarbonate filter membranes in transwell dishes and grown for 3-5 days, yielding a polarized monolayer with tight junctions between cells. […] The left set of bars depicts apical to basolateral transport, while the right set of bars depicts basolateral to apical transport.

[7] = target: T1, MCT1; assay: 14C-lactate uptake in Xenopus oocytes injected with MCT1 cRNA (FIG. 2); format: cell-based; parameters: expressed in transfected cells; host or cells: Xenopus oocytes injected with MCT1 cRNA; conditions: oocytes expressing MCT1 vs oocytes expressing MCT4 or noninjected control oocytes
[8] = target: T1, MCT1; assay: 14C-lactate uptake assay in HEK-TREx cells transfected with tet-MCT1 inducible construct; format: cell-based; parameters: expressed in transfected cells; conditions: tet-induced vs non-induced
Description: Human MCT1 (hMCT1) is expressed at high levels in most mammalian cell lines. hMCT1 is a high capacity transporter, so low levels of hMCT1 expression may result in significant substrate transport. To control the level of hMCT expression, an inducible tet promoter-hMCT1 expression construct was prepared using the Gateway plasmid cloning system following manufacturers instructions (Invitrogen). The tet-MCT1 inducible construct was transfected into HEK-TREx cells using Fugene transfection following manufacturers instructions (Roche Biosciences). When the transfected cells were tested in an uptake assay, the amount of tetracycline-inducible MCT1 -mediated transport of ^14C-lactate was about 20% higher than the level of endogenous uptake seen in non-induced cells. The addition of an excess of unlabeled lactate competed with the uptake of ^14C-lactate.

[9] = 2.5 nM 3H-vinblastine, in the presence of 250 μM verapamil

Row | Compound | Reported Affinity for MCT1 [1] [mM] | affinity for the MCT1-rCD147 fusion protein compared with hMCT1 alone [3] | other results
1 | O=C(O)C(=O)c1cccs1 [2-Thiophene glyoxylate] | 3 | higher affinity | MCT1 substrate uptake upon induction with tetracycline [2]: significant increase
2 | CCCC(=O)O [Butyric Acid] | 8 |  | 
3 | CC1(C)S[C@@H]2[C@H](NC(=O)C(C(=O)Oc3ccc4c(c3)CCC4)c3ccccc3)C(=O)N2[C@H]1C(=O)O (stereo partly drawn) [Carindicillin] | >5 |  | 
4 | CC(C)C[C@H](O)C(=O)O [Compound 2, L-alpha-hydroxy-isocaproic acid] |  | higher affinity | 
5 | O=C(O)c1ccccc1 [Compound 5, benzoic acid] |  | higher affinity | 
6 | O=C(O)Cc1ccccc1 [Compound 8, phenylacetic acid] |  | higher affinity | 
7 | CCC(O)C(=O)O (stereo not drawn) [GHB, α-hydroxybutyrate] |  |  | uptake of labeled GHB [4]: increased uptake; uptake of labeled GHB [5]: increased uptake
8 | CC(O)C(=O)O (stereo not drawn) [Lactic Acid, lactic acid] | 2 | higher affinity | 
9 | O=C(O)c1cccnc1 [Nicotinic Acid, nicotinic acid] | 4 | higher affinity | 
10 | O=C(CCc1ccc(O)cc1)c1c(O)cc(O)cc1O [Phloretin] | 0.2 |  | 
11 | CC(=O)C(=O)O [Pyruvic Acid] | 1 |  | 
12 | O=C(O)c1ccccc1O [Salicylic Acid] | >5 |  | 
13 | O=C(O)c1cc(/N=N/c2ccc(S(=O)(=O)Nc3ccccn3)cc2)ccc1O [Sulfasalazine] | 0.15 |  | 
14 | CC[C@]1(O)C[C@@H]2CN(CCc3c([nH]c4ccccc34)[C@@](C(=O)OC)(c3cc4c(cc3OC)N(C)[C@H]3[C@@](O)(C(=O)OC)[C@H](OC(C)=O)[C@]5(CC)C=CCN6CC[C@]43[C@@H]65)C2)C1 [^3H-vinblastine] |  |  | Apical to basolateral transport [6, 9]: strongly increased; basolateral to apical transport [6, 9]: strongly decreased; efflux transporter substrate status ([6]; conclusion from transport with and without verapamil): substrate of PgP
15 | ^14C-lactic acid [^14C-lactate] |  |  | 14C-lactate uptake [7]: higher levels; tetracycline-inducible MCT1-mediated transport, higher than endogenous uptake in non-induced cells [8]: about 20%; MCT1 substrate uptake upon induction with tetracycline [2]: significant increase
